Experimental data as given in the pKa sets of Baltruschat and Czodrowski (2020).

Settings: acidic group

SMILES | pKa
O=[N+]([O-])c1ccc(C(=S)Nc2ccccc2)cc1 | 9.81
COc1ccc(NC(=S)c2cccc(Br)c2)cc1 | 11
CC(C)(C)OOCC(=O)O | 3.49
Cc1ccccc1C(=O)O | 3.92
O=Cc1c(O)cccc1Cl | 8.26
O=C([O-])[C@@H]1O[C@H](Oc2ccc3[nH+]c(O)ccc3c2)[C@@H](O)[C@H](O)[C@H]1O | 3.75
Oc1c(Cl)cc(Cl)c2cccnc12 | 7.51
Cc1cc(O)ccc1C(C)C | 10.3
NC(=S)Nc1cccc([N+](=O)[O-])c1 | 11.1
COc1ccc([Se]O)c([N+](=O)[O-])c1 | 10.7
[NH3+][C@H]1CC(=O)NC1=O | 5.9
Cc1ccc(S(=O)(=O)N(CC[NH2+]CC(=O)O)CC(=O)O)cc1 | 1.99
[O-]c1ccc2ccccc2[n+]1O | 6.88
N#CC(CCCC(=O)O)c1ccccc1 (stereo unspecified) | 4.64
O=P(C1CCCCC1)(C1CCCCC1)C1CCCCC1 | 13.7
COc1cccc(CN)c1O | 11.1
CCCCSC(=N)c1ccccc1 | 8.21
[NH3+]Cc1ccc(C(=O)O)cc1 | 3.59
O=S(Cc1ccccc1)c1cnn[nH]1 (stereo unspecified) | 6.09
NC(=O)c1ccccc1O | 8.61
[NH3+]C(CC(=O)O)C(=O)NC(CC(=O)O)C(=O)O (stereo unspecified) | 2.7

SMILES | pKa
O=C(O)CC[C@@H]1NC(=O)CNC1=O | 4.36
C/C(=C\c1ccccc1)CC(=O)O | 5.35
CC(=O)[n+]1ccc(C#N)cc1 | 1.98
COc1ccc(-c2c(O)c2=O)cc1 | 2.33
CC(=O)c1ccccc1NN=C1C(=O)CC(C)(C)CC1=O | 10.5
CC(C)CCC1=C(O)C(=O)c2ccccc2C1=O | 5.13
C#CC#CC=C=CC(O)CCC(=O)O (stereo unspecified) | 4.8
O=C(O)C=C=Cc1ccccc1 | 3.7
O=C(O)CCS | 4.38
Cn1ccnc1CS | 8.88
CCCc1c(C)nn(-c2ccccc2)c1O | 11.4
CCCCCCCCCc1c(-c2ccccc2)nn(-c2ccccc2)c1O | 7.2
O=NNc1nc([N+](=O)[O-])nn1-c1ccccc1 | 3.33
Nc1ccncn1 | 18.4
N#CC(c1ccccc1)c1ccc([N+](=O)[O-])cc1 (stereo unspecified) | 10.9
C/C(=C\C=C\C(C)C(=O)O)[C@H]1C[NH2+][C@H](C(=O)O)[C@H]1CC(=O)O (stereo partly specified) | 2.1
Cc1cccc(/C=C/C(=O)O)c1 | 4.44
Sc1ccc2ncccc2c1 | 6.5
CNC(=O)/C=C(/C)C(=O)O | 3.23
O=COO | 7.1
O=[N+]([O-])c1cc2cc(O)ccc2cc1Cl | 8.56

SMILES | pKa
Cc1cccc(Br)c1C(=O)O | 2.71
Nc1ccc(O)c(N)c1 | 10.4
Nc1n[nH]cc1[N+](=O)[O-] | 9.73
O=C(O)c1ccc([N+](=O)[O-])cc1Cl | 1.96
COC(=O)CC(=N/[O-])/C(C)=N/O | 11.6
Cc1cc(C(=O)O)c[nH]1 | 5.35
COc1ccc(S(=O)(=O)Nc2ccccc2)cc1 | 8.66
C[n+]1ccncc1O | -0.04
COc1ccc(B(O)O)cc1 | 9.32
CC(=O)c1ccc(NN=C(C#N)C#N)cc1 | 5.85
C[n+]1c2ccccc2cc2cc(N)ccc21 | 9.8
C[Si](C)(C)C#CC(=O)O | 2.21
C[N+](C)(C)CCC[N+](C)(C)CCCNC(=O)/C=N/O | 8.31
Cn1nnc(CC(=O)O)n1 | 3.44
[O-]c1[nH+]c(O)c(Br)c[n+]1[C@H]1O[C@@H](CO)[C@H](O)[C@@H]1O | -0.9
NNC(=O)C(F)(F)C(F)(F)C(F)(F)F | 8.02
Cc1cnc(C)c(O)c1C=O | 8.08
CC(=N\O)/C(CN(C)C)=N\O | 10.6
O=C1NC(C(=O)O)CC1O (stereo unspecified) | 3.8
COc1ccc2c(c1O)-c1c3c(cc4c1[C@H](C2)N(C)CC4)OCO3 | 10.1
Nc1ccc(S(=O)(=O)Nc2ccc(S(N)(=O)=O)cc2)cc1 | 7.85

SMILES | pKa
CCOC(=O)c1ccccc1-n1nc(O)cc1C | 12.3
N#CC(C#N)=C(N)C(C#N)C#N | 2.58
Cc1ccc(Cl)c(C(=O)O)c1 | 3.12
CO/C(C)=C\C(=O)O | 5.81
Cc1c(Cl)cccc1C(=O)O | 3.43
Nc1cccc(N)c1O | 10.5
CC1=NS(=O)(=O)c2cccnc2N1 | 7.64
O=C([O-])[C@@H]1CC[C@@H](C(=O)O)[Se][Se]1 | 3.67
O=C(O)CS/C=C/c1ccccc1 | 3.5
CC(C)=CCC1C(=O)C(CC=C(C)C)(CC=C(C)C)C(O)(C(=O)O)C1=O (stereo unspecified) | 3.9
CC(C)C(Br)C(=O)O (stereo unspecified) | 2.82
[O-][n+]1c2ccccc2[n+](O)c2ccccc21 | -1.62
COC1=CC2CCC1(C(=O)O)CC2 | 4.45
O=C(O)[C@@H]1CC[C@@H](C(=O)O)S1 | 3.3
O=c1ccc(O)ccc1O | 6.47
O=[N+]([O-])c1cccc(S(=O)(=O)O)c1 | -7.1
Nc1nc2ncncc2[nH]1 | 9.36
N#Cc1ccc(-c2nnn[nH]2)cc1 | 3.53
O=C(O)[C@]12C[NH2+]CC[C@H]1O2 | 2.63

Same assay, conditions: basic group

SMILES | pKa
Cc1n[nH]c2c(NCc3ccccc3)ncnc12 | 4.95
CCCCN(CCCC)c1ccc([N+](=O)[O-])cc1 | 1.08
[O-]c1[nH+]cnc2nc[nH]c12 | 1.99
COCCNc1cccc(OC)c1 | 3.7
Oc1c(Cl)cc(Cl)c2cccnc12 | 2.89
c1coc(CNCC[NH2+]Cc2ccco2)c1 | 5.74
CN(CC[NH+](C)C)c1ccnc2cccc([N+](=O)[O-])c12 | 4.86
Cc1cc(C)c2ccc3cccnc3c2n1 | 5.96
CC1(C)S[C@H]2[C@@H](NC(=O)Cc3ccc(N)cc3)C(=O)N2[C@@H]1C(=O)[O-] | 4.6
C[NH2+]CCCN | 8.66
Clc1ccc2[nH]cnc2c1 | 4.86
CC(=O)Nc1ccc(N)cc1 | 4.46
O=P(C1CCCCC1)(C1CCCCC1)C1CCCCC1 | 5.04
COc1cccc(CN)c1O | 8.7
CCN(CC)CCCCCCNc1c2ccc(Cl)cc2nc2ccc(OC)cc12 | 10.3
Cn1c2ccccc2c(=N)c2ccccc21 | 11
C#CC(C)Nc1ccccc1 (stereo unspecified) | 3.25
O=C([O-])[C@@H]1O[C@H](Oc2cccc3ncccc23)[C@@H](O)[C@H](O)[C@H]1O | 4.91
C1CNCCSCC[NH2+]C1 | 3.23
Cc1n[nH]c2c(NCc3ccco3)ncnc12 | 4.84
Cn1cccc1-c1cccnc1 | 4.73
CCNN(C)C | 6.58
Cc1cnc2c(ccc3c(C)c(C)cnc32)c1C | 6.31

SMILES | pKa
N#CN | 1.1
CCCN(CC(C)O)CC(O)CC (stereo unspecified) | 9
CCN(CC)CCN=C(c1ccccc1C)c1ccccc1C | 8.8
CN(C)c1cccc2cccc(N(C)C)c12 | 12.1
CN=C(N(C)C)N(C)C | 13.8
[NH3+]Cc1cccnc1 | 3.71
Cc1cn(C)nc1C | 3.56
Cn1ccnc1CS | 6.31
CNc1nc(NC)c2cn[nH]c2n1 | 6.08
c1ccc(NC2=NCCCO2)cc1 | 9.33
CCC(C)(C)N(C)C(C)(C)C | 11.9
Nc1ccncn1 | 5.7
NCCCCCc1ccccn1 | 10.4
COc1cc(S(C)=O)ccc1-c1cn2ccnc(OC)c2n1 (stereo unspecified) | 2.46
Nc1ccc(O)c(N)c1 | 5.7
Cc1ccnc2ccccc12 | 5.51
C[C@]1(N)C[C@@H]1N | 9.06
CC(CN1CCCCC1)C(C#N)(c1ccccc1)c1ccccc1 (stereo unspecified) | 7.54
CN(C)CCCN(C)CCCN(C)C | 10
COC(=O)c1nc2cc(Cl)ccc2[nH]1 | 0.3
C1CNCC[NH2+]CCN1 | 6.97
CN(C)c1ncc(Br)s1 | 3.66
FC(F)(F)c1cc(-c2ccccc2)nnc1NCC[NH+]1CCOCC1 | 1.44

SMILES | pKa
CN[C@H]1C[C@]1(C)NC | 9.05
c1ncc(Cc2cnc[nH]2)[nH]1 | 7.63
N/C(C/C(N)=N/O)=N\O | 4.77
O[C@H]1[C@H](O)[C@@H](n2cnc3ccccc32)OC[C@H]1O | 4.15
NCCC(=O)[O-] | 10.2
CC[NH+](CC)CCNc1cc(Nc2ccc(Cl)cc2)nc(C)n1 | 5.42
CC(=O)c1ccc(NN=C(C#N)C#N)cc1 | -0.77
N[C@H]1CC(=O)NC1=O | 9
NCCCC[NH2+]CCCN | 9.86
CCC(=O)C(CCN1CCOCC1)(c1ccccc1)c1ccccc1 | 6.98
Cc1c(O)c(=O)n(-c2ccccc2)n1C | -0.22
O=C([O-])c1c2cccc1COCCOCc1ncc([nH]1)COCCOC2 | 7.05
CCc1c(C)nnc(C)c1C | 5.17
COc1ccc2c3c1O[C@H]1[C@@H](O)C=C[C@H]4[C@@H](C2)N(C)CC[C@@]341 | 8.05
Cc1ccc(/C(N)=N/O)cc1 | 5.14
NCCc1ccc(Br)cc1 | 9.65
Cc1noc(-c2ccccc2)c1C(=O)O | 1.7
Cc1cnc(C)c(O)c1C=O | 4.1
CCCCCc1cccnn1 | 3.7
CCSC(C)=N | 6.9
CC(=N\O)/C(CN(C)C)=N\O | 8.4
COc1cc(S(C)=O)ccc1-c1cn2ccncc2n1 (stereo unspecified) | 2.88
C[NH+](C)c1ccc(/N=N/c2ccncc2)cc1 | 3.4

SMILES | pKa
CC[Si](C)(C)CN | 10.7
Cc1nc(N(C)C)nc(OC(=O)N(C)C)c1C | 4.53
Nc1cccc(N)c1O | 5.5
Cc1cc([O-])[nH+]c([S-])n1 | 7.73
CCN(CC)CC(O)C[NH+](CC)CC | 7.74
C#CC(C)(C)NC(C)(C)CC | 9
O=[N+]([O-])c1ccc(-c2cnc(-c3ccccc3)o2)cc1 | 0.35
c1ccc(CNc2nc[nH+]c3[nH]cnc23)cc1 | -1
CCCc1c(O)n[nH]c1C | 2.8
CC(=O)C1(c2cccc(O)c2)CCN(C)CC1 | 8.61
Fc1cc2nc[nH]c2cc1Cl | 4.33
Cc1cc2ncn([C@H]3OC[C@@H](O)[C@@H](O)[C@@H]3O)c2cc1C | 4.58
CC[C@]12CCCN3CC[C@@]4(c5cccc(OC)c5N(C(C)=O)[C@H]4CC1)[C@@H]32 | 7.57
c1ccc(-c2ccc(NCC[NH+]3CCOCC3)nn2)cc1 | 3.74
C#CCN(C)C | 7.05
OC1(c2ccco2)CN2CCC1CC2 (stereo unspecified) | 9.06
CCC/C=C1\CCCN1C | 11.9
Cn1cncc1C[C@H]([NH3+])C(=O)[O-] | 6.53
Nc1nc2ncncc2[nH]1 | 4.68
C[C@@H]1CCCC[C@@H]1N | 10.6
